# Source: US8178506B2, “Oligomeric compounds and compositions for use in modulation of small non-coding RNAs” (Regulus Therapeutics Inc., priority 2003, dated 2012)
# In the oligonucleotide strings, read from the 5' end, every base follows the letter of its sugar. An asterisk marks phosphorothioate; unmarked linkages are phosphodiester. Other units and linkages are bracketed, terminal groups are in braces. A string of capitals states the bases alone. e = 2'-O-(2-methoxyethyl) (MOE); [5mC] = 5-methylcytosine
# Legend:
# HeLa cells = test: Cell cycle assay in HeLa cells; type: cell-based, human; details: for % cells in cell cycle phase: G1 / % cells in cell cycle phase: G2/M / % cells in cell cycle phase: S / % cells in cell cycle phase: aneuploid / % cells in cell cycle phase: subG1: 48 hours after treatment, relative to untreated control (UTC=100); for phase of the cell cycle in which cells arrest or delay: HeLa
# A549 cells = test: Cell cycle assay in A549 cells; type: cell-based, human; details: 24 hours; for % cells in cell cycle phase: G1 / % cells in cell cycle phase: G2/M / % cells in cell cycle phase: S / % cells in cell cycle phase: aneuploid / % cells in cell cycle phase: subG1: A549 cells, relative to the untreated control cells in that phase; for cell cycle delay or arrest (G2/M), dose response: A549, 25-, 50-, 100- or 150 nM
# Description: In accordance with the present invention, certain oligomeric compounds targeting miRNAs were selected for dose response studies. Using the cell cycle assay described above, the cell cycle profiles of HeLa or A549 cells treated with varying concentrations of oligomeric compounds of the present invention were assessed.
# Concomittent decreases in the percentage of cells in G1-phase of the cell cycle and increases in the percentage of hypodiploid (subG1) cells were also observed.
# In a further study, A549 cells were treated with 25-, 50-, 100- or 150 nM of the oligomeric compounds ISIS Numbers 338637 (SEQ ID NO: 464) targeted against mir-96, and ISIS 338769 (SEQ ID NO: 596) targeted against mir-130b, ISIS 338836 (SEQ ID NO: 663) targeted against mir-23a, and ISIS 340350 (SEQ ID NO: 855) targeted against mir-95 (Mourelatos). Cells treated with increasing concentrations of oligomeric compounds were compared to untreated cells, to assess the dose-responsiveness of the observed delay or arrest. The random-mer ISIS 29848 was used as a negative control. Cells were prepared for flow cytometry 24-hours after oligonucleotide treatment. Results of these dose response studies are shown in Table 34, where data are expressed as percentage of cells in each phase relative to the untreated control cells in that phase.
# PEPCK-c = PEPCK-c mRNA expression in HepG2 cells; type: cell-based, human; details: 100 nM; for decrease in PEPCK-c mRNA: HepG2, basal (no insulin)
# HuVECs = test: Endothelial tube formation assay in HuVECs; details: for tube formation: 75 nM
# IL-12 mRNA = IL-12 mRNA in LPS-activated primary murine macrophages; type: cell-based, mouse; details: normalized to LPS-treated cells without oligomeric compound
# Description: To investigate the role of miRNAs in the immune response, oligomeric compounds of the present invention targeting miRNAs were tested for their effects upon lipopolysaccharide (LPS)-activated primary murine macrophages. Macrophages participate in the immune response, for example, in the recognition and phagocytosis of microorganisms, including bacteria. Interferon-gamma (IFN-gamma) released by helper T cells is one type of signal required for macrophage activation, and LPS can serve as an additional stimulus. LPS is a component of the gram-negative bacterial cell wall and acts as an agonist for toll-like receptor 4 (TLR4), the primary LPS receptor expressed by macrophages. The proinflammatory cytokines interleukin-12 (IL-12) and interleukin-6 (IL-6) are induced by LPS treatment of macrophages, thus the expression of the mRNAs encoding these cytokines was used to evaluate the response of macrophages to LPS following treatment with oligomeric compounds targeting miRNAs.
# Macrophages were isolated as follows. Female C57B1/6 mice (Charles River Laboratories, Wilmington, Mass.) were injected intraperitoneally with 1 ml 3% thioglycollate broth (Sigma-Aldrich, St. Louis, Mo.), and peritoneal macrophage cells were isolated by peritoneal lavage 4 days later. The cells were plated in 96-well plates at 40,000 cells/well for one hour in serum-free RPMI adjusted to contain 10 mM HEPES (Invitrogen Life Technologies, Carlsbad, Calif.), allowed to adhere, then non-adherent cells were washed away and the media was replaced with RPMI containing 10 mM HEPES, 10% FBS and penicillin/streptomycin (“complete” RPMI; Invitrogen Life Technologies, Carlsbad, Calif.).
# Oligomeric compounds were introduced into the cells using the non-liposomal transfection reagent FuGENE 6 Transfection Reagent (Roche Diagnostics Corp., Indianapolis, Ind.). Oligomeric compound was mixed with FuGENE 6 in 1 mL of serum-free RPMI to achieve a concentration of 10 μL FuGENE per 1000 nM oligomeric compound. The oligomeric compound/FuGENE complex was allowed to form at room temperature for 20 minutes. This mixture was diluted to the desired concentration of oligomeric compound by the addition of the appropriate volume of complete RPMI. The final ratio of FuGENE 6 to oligomeric compound was 1 μL of FuGENE 6 per 100 nM oligomeric compound. A volume of 100 μL of oligomeric compound/FuGENE/RPMI was added to each well of the 96-well plate in which the macrophages were cultured. Each oligomeric compound treatment was repeated in triplicate.
# Following oligomeric compound treatment, cells were stimultated with LPS. Cells were cultured in the presence of the transfection complex for approximately 24 to 28 hours at 37° C. and 5% CO2, after which the medium containing the transfection complex was removed from the cells, and complete RPMI containing 100 ng/mL LPS (Sigma-Aldrich Corp., St. Louis, Mo.) was added to the cells for a period of approximately 24 hours. Control samples included (1) cells receiving no oligomeric compound, stimulated with LPS and (2) cells receiving neither oligomeric compound nor LPS treatment.
# In another embodiment, following oligomeric compound treatment, cells were first activated by IFN-gamma, to amplify the response to LPS. Cells were cultured in the presence of the transfection complex for approximately 24 hours at 37° C. and 5% CO2, at which point the medium containing the transfection complex was removed from the cells, and complete RPMI containing 100 ng/mL recombinant mouse IFN-gamma (R&D Systems, Minneapolis, Minn.) was added to the cells. After the 4 hour treatment with INF-gamma, cells were treated with 100 ng/mL LPS for approximately 24 hours. Control samples included (1) cells receiving no oligomeric compound, stimulated with LPS and (2) cells receiving neither oligomeric compound nor LPS treatment. […]
# [1] = HeLa cells, 150 nM oligomeric compound, 24 hours, relative to untreated control (UTC = 100)
# [2] = HeLa cells, 150 nM oligomeric compound
# [3] = HeLa cells, 150 nM, 48 hours, relative to untreated control
substance,measurement,setting,value
"338836 (antisense TCCTCGGTGGCAGAGCTCAG; all 2'-MOE, all phosphorothioate, methylation of C not given here) [compound 338836]",% cells aneuploid,HeLa cells; [1],150%
same,% cells in cell cycle phase G1,HeLa cells; [1],185%
same,% cells in cell cycle phase G2/M,HeLa cells; [1],105%
same,% cells in cell cycle phase S,HeLa cells; [1],53%
same,% cells in cell cycle phase subG1,HeLa cells; [1],153%
same,% cells in cell cycle phase: G1,HeLa cells; [2],52%
same,% cells in cell cycle phase: G2/M,HeLa cells; [2],169%
same,% cells in cell cycle phase: S,HeLa cells; [2],152%
same,% cells in cell cycle phase: aneuploid,HeLa cells; [2],165%
same,% cells in cell cycle phase: subG1,HeLa cells; [2],811%
same,% cells in cell cycle phase G1,HeLa cells; [3],97%
same,% cells in cell cycle phase G2/M,HeLa cells; [3],121%
same,% cells in cell cycle phase S,HeLa cells; [3],96%
same,% cells in cell cycle phase aneuploid,HeLa cells; [3],114%
same,% cells in cell cycle phase subG1,HeLa cells; [3],303%
same,% cells in cell cycle phase: G1,A549 cells; 25 nM,97%
same,% cells in cell cycle phase: G2/M,A549 cells; 25 nM,97%
same,% cells in cell cycle phase: S,A549 cells; 25 nM,103%
same,% cells in cell cycle phase: aneuploid,A549 cells; 25 nM,99%
same,% cells in cell cycle phase: subG1,A549 cells; 25 nM,76%
same,% cells in cell cycle phase: G1,A549 cells; 50 nM,113%
same,% cells in cell cycle phase: G2/M,A549 cells; 50 nM,98%
same,% cells in cell cycle phase: S,A549 cells; 50 nM,89%
same,% cells in cell cycle phase: aneuploid,A549 cells; 50 nM,111%
same,% cells in cell cycle phase: subG1,A549 cells; 50 nM,232%
same,% cells in cell cycle phase: G1,A549 cells; 100 nM,117%
same,% cells in cell cycle phase: G2/M,A549 cells; 100 nM,116%
same,% cells in cell cycle phase: S,A549 cells; 100 nM,80%
same,% cells in cell cycle phase: aneuploid,A549 cells; 100 nM,153%
same,% cells in cell cycle phase: subG1,A549 cells; 100 nM,68%
same,% cells in cell cycle phase: G1,A549 cells; 150 nM,117%
same,% cells in cell cycle phase: G2/M,A549 cells; 150 nM,149%
same,% cells in cell cycle phase: S,A549 cells; 150 nM,69%
same,% cells in cell cycle phase: aneuploid,A549 cells; 150 nM,114%
same,% cells in cell cycle phase: subG1,A549 cells; 150 nM,178%
CAGTGAATTCTACCAGTGCCATA (anti-miR; chemistry not fully specified) [ISIS 327899],decrease in PEPCK-c mRNA,PEPCK-c,58%
same,tube formation,HuVECs,suppressed tube formation
"338637 (antisense TCAGAGCGGAGAGACACAAG; all 2'-MOE, all phosphorothioate, methylation of C not given here) [compound 338637]",% cells aneuploid,HeLa cells; [1],188%
same,% cells in cell cycle phase G1,HeLa cells; [1],170%
same,% cells in cell cycle phase G2/M,HeLa cells; [1],84%
same,% cells in cell cycle phase S,HeLa cells; [1],70%
same,% cells in cell cycle phase subG1,HeLa cells; [1],88%
same,% cells in cell cycle phase: G1,HeLa cells; [2],90%
same,% cells in cell cycle phase: G2/M,HeLa cells; [2],117%
same,% cells in cell cycle phase: S,HeLa cells; [2],109%
same,% cells in cell cycle phase: aneuploid,HeLa cells; [2],210%
same,% cells in cell cycle phase: subG1,HeLa cells; [2],239%
same,% cells in cell cycle phase: G1,A549 cells; 25 nM,100%
same,% cells in cell cycle phase: G2/M,A549 cells; 25 nM,101%
same,% cells in cell cycle phase: S,A549 cells; 25 nM,99%
same,% cells in cell cycle phase: aneuploid,A549 cells; 25 nM,99%
same,% cells in cell cycle phase: subG1,A549 cells; 25 nM,89%
same,% cells in cell cycle phase: G1,A549 cells; 50 nM,110%
same,% cells in cell cycle phase: G2/M,A549 cells; 50 nM,107%
same,% cells in cell cycle phase: S,A549 cells; 50 nM,89%
same,% cells in cell cycle phase: aneuploid,A549 cells; 50 nM,120%
same,% cells in cell cycle phase: subG1,A549 cells; 50 nM,86%
same,% cells in cell cycle phase: G1,A549 cells; 100 nM,126%
same,% cells in cell cycle phase: G2/M,A549 cells; 100 nM,115%
same,% cells in cell cycle phase: S,A549 cells; 100 nM,73%
same,% cells in cell cycle phase: aneuploid,A549 cells; 100 nM,146%
same,% cells in cell cycle phase: subG1,A549 cells; 100 nM,67%
same,% cells in cell cycle phase: G1,A549 cells; 150 nM,123%
same,% cells in cell cycle phase: G2/M,A549 cells; 150 nM,144%
same,% cells in cell cycle phase: S,A549 cells; 150 nM,66%
same,% cells in cell cycle phase: aneuploid,A549 cells; 150 nM,135%
same,% cells in cell cycle phase: subG1,A549 cells; 150 nM,216%
"ISIS 338836: SEQ ID NO: 663, targeted against mir-23a (TCCTCGGTGGCAGAGCTCAG; all 2'-MOE, all phosphorothioate, methylation of C not given here)",phase of the cell cycle in which cells arrest or delay,"HeLa cells; 150 nM, 24 hours",G1-phase
same,phase of the cell cycle in which cells arrest or delay,"HeLa cells; 150 nM, 48 hours",S-phase
same,"cell cycle delay or arrest (G2/M), dose response",A549 cells,dose-responsive delay or arrest
GAGACCCAGTAGCCAGATGTAGCT (chemistry not given here) [ISIS 327920],reduction of PEPCK-c mRNA expression,"PEPCK-c; HepG2, 1 nM insulin",41%
same,decrease in PEPCK-c mRNA,PEPCK-c,48%
same,tube formation,HuVECs,suppressed tube formation
CGCGTACCAAAAGTAATAATG (anti-miR; chemistry not fully specified) [ISIS 327886],decrease in PEPCK-c mRNA,PEPCK-c,39%
same,tube formation,HuVECs,suppressed tube formation
327883 (antisense e[5mC]*eA*eG*eA*eA*e[5mC]*eT*eT*eA*eG*e[5mC]*e[5mC]*eA*e[5mC]*eT*eG*eT*eG*eA*eA) [compound 327883],"IL-12 mRNA expression, −IFN % UTC","IL-12 mRNA; 300 nM oligomeric compound and LPS, no IFN-gamma pretreatment, single experiment",266 % UTC
same,"IL-12 mRNA expression, +IFN % UTC","IL-12 mRNA; 300 nM oligomeric compound, stimulation with IFN-gamma and LPS, average of 2 experiments",39 % UTC
same,% Activity Relative to UTC (tube formation),"HuVECs; 75 nM oligomeric compound, Table 56",92.9%
GCTTCCCAGCGGCCTATAGT (chemistry not given here) [ISIS 338769],phase of the cell cycle in which cells arrest or delay,"HeLa cells; 150 nM, 24 hours",G1-phase
same,phase of the cell cycle in which cells arrest or delay,"HeLa cells; 150 nM, 48 hours",S-phase
same,"cell cycle delay or arrest (G2/M), dose response",A549 cells,dose-responsive delay or arrest
"ISIS 338637: SEQ ID NO: 464, targeted against mir-96 (TCAGAGCGGAGAGACACAAG; all 2'-MOE, all phosphorothioate, methylation of C not given here)",phase of the cell cycle in which cells arrest or delay,"HeLa cells; 150 nM, 24 hours",G1-phase
same,phase of the cell cycle in which cells arrest or delay,"HeLa cells; 150 nM, 48 hours",S-phase
same,"cell cycle delay or arrest (G2/M), dose response",A549 cells,dose-responsive delay or arrest
"ISIS 340350: SEQ ID NO: 855, targeted against mir-95 (Mourelatos) (TGCTCAATAAATACCCGTTGAA; all 2'-MOE, all phosphorothioate, methylation of C not given here)",phase of the cell cycle in which cells arrest or delay,"HeLa cells; 150 nM, 24 hours",G1-phase
same,phase of the cell cycle in which cells arrest or delay,"HeLa cells; 150 nM, 48 hours",S-phase
same,"cell cycle delay or arrest (G2/M), dose response",A549 cells,dose-responsive delay or arrest
